According to patent EP0971717B1, “CYTOTOXIC AMINO SUGAR AND RELATED SUGAR DERIVATIVES OF INDOLOPYRROLOCARBAZOLES” (Bristol-Myers Squibb Company, priority 1996, dated 1998):
Each block holds one compound with its values, some of them ahead of it.

Assays:
[1] = biological target: T1, purified human topoisomerase I (Homo sapiens, UniProt P11387); experiment: Topoisomerase I mediated single strand break formation in DNA (in vitro); assay type: biochemical; details: for EC50: PM2 DNA, 30 minutes at 37° C, median effective concentration for single strand DNA break formation; for Topo-I activity: result in words
T1 construct: purchased Topogen
T1 sequence (P11387 1-765): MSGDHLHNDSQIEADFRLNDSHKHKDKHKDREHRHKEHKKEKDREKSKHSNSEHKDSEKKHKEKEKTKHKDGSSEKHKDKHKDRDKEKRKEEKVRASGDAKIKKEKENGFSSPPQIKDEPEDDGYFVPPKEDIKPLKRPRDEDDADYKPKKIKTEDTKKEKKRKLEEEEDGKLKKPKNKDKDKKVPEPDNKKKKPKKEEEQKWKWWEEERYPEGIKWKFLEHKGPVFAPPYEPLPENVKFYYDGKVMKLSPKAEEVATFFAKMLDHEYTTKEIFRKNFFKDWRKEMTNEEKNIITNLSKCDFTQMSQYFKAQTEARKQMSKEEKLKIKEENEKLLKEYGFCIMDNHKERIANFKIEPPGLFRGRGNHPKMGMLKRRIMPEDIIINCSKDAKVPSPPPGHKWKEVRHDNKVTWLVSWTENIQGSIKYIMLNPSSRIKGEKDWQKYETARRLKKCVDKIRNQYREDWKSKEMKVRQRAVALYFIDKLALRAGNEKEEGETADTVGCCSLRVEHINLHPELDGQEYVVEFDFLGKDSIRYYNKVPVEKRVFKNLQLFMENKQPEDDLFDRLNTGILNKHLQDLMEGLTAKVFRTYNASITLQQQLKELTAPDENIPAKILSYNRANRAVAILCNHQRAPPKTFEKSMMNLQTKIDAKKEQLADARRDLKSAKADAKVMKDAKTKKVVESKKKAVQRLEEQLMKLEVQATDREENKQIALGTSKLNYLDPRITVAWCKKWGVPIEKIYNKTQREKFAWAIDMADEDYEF
Protocol: Samples dissolved in 100% DMSO as either […] or 10 mg/ml solutions, unless otherwise stated, were diluted in Tris-EDTA buffer. Marine bacteriophage PM2 DNA (Boehringer Mannheim) was also diluted in Tris-EDTA buffer to a concentration of 0.02 µg/µl. Different dilutions of compound being evaluated were mixed with diluted DNA and this mixture was added to 1000 unit (one unit of enzyme activity is defined as the amount capable of relaxing 100 ng of supercoiled DNA in approximately 30 minutes at 37°C) aliquots of purified human topoisomerase I (Topogen) in 2X reaction buffer to start the reaction. The compound - DNA - enzyme mixture was incubated for 30 minutes at 37° C before stopping the reaction with warm stop buffer containing sodium dodecyl sulfate and proteinase K (Sigma). These mixtures were allowed to incubate at 37° C for another 10 minutes, at which time the mixtures were removed from the waterbath and extracted with a 24:1 mixture of chloroform/isoamyl alcohol. Following centrifugation, aliquots of the aqueous phases were placed in wells of a 0.9% agarose (SeaKem) gel in Tris-borate buffer containing 0.5 µg/ml of ethidium bromide and subjected to electrophoresis for 15 hours to separate the different topological isomers and nicked and broken DNAs. After destaining the gel in water, the ethidium bromide stained DNA reaction products were visualized by exposing the gel to UV irradiation. Negatives of photographs of the irradiated gels were scanned with a densitometer and areas under the peaks were calculated in order to obtain percent single strand DNA break formation for each sample. A median effective concentration(EC50) was obtained for each compound by interpolation between points of the resulting dose - effect curve which defines the potency of the compound for its effect for inducing topoisomerase I mediated single strand breaks in DNA.

[2] = system: HCT116 human colon carcinoma cells; experiment: In-vitro cell-based cytotoxicity, XTT assay; details: HCT-116, 72 hrs incubation, absorbance at 450 nm
Protocol: The proliferation inhibition activity against human colon cell line was measured as follows.
Cytotoxicity was assessed in HCT116 human colon carcinoma cells by XTT (2,3-bis(2-methoxy-4-nitro- 5-sulfophenyl)-5-[(phenylamino)carbonyl]-2H-tetrazolium hydroxide assay as described in the literature by Scudiero, DA, Shoemaker, RH, Paull, KD, Monks, A, Tierney, S, Nofziger, TH, Currens, MJ, Seniff, D, and Boyd, MR. Evaluation of a soluble tetrazolium/formazan assay for cell growth and drug sensitivity in culture using human and other tumor cell lines, was done according to the procedure described in Cancer Res. 48: 4827-4833, 1988. Cells were plated at 4000 cells/well in 96 well microtiter plates and 24 hrs later drugs were added and serial diluted. The cells were incubated at 37° C for 72 hrs at which time the tetrazolium dye, XTT, containing phenazine methosulfate was added. A dehydrogenase enzyme in live cells reduces the XTT to a form that absorbs light at […] which can be quantitated spectrophotometrically. The greater the absorbance the greater the number of live cells. The results are expressed as an IC50 which is the drug concentration required to inhibit cell proliferation (i.e. absorbance at 450 nm) to 50% of that of untreated control cells.

[3] = system: P388 leukemia cells; experiment: In-vivo anti-tumor efficacy against ip implanted P388 leukemia; parameters: species or system mice (BDF1 or CDF1); MST: unit not given here; details: for T/C (%): ip, MST(T)/MST(C) x 100, activity defined as >= 125%; for MST: one ip injection one day after implant, median survival time of treated mice
Protocol: In-vivo antitumor experiments were initiated by implanting mice (BDF1 or CDF1) ip with 10(6) P388 leukemia cells. Treatments were initiated one day after implant and involved one ip injection per dose level; several dose levels were evaluated per compound. Six mice were typically used per dose level in treatment groups, and eight to ten mice were used as parallel untreated leukemic controls. Evaluation of activity was made on the basis of comparing the median survival time (MST) of treated (T) mice with the MST of control (C) mice. Activity was defined as a %T/C of > or = 125%, calculated as: MST(T)/MST(C) x 100 = %T/C Table I

SMILES: NC[C@H]1O[C@@H](n2c3ccc(F)cc3c3c4c(c5c6cc(F)ccc6[nH]c5c32)C(=O)NC4=O)[C@H](O)[C@@H](O)[C@@H]1O [Example 19]
- EC50 [1]: 40 nM
- Topo-I activity [1]: sub micro molar
- T/C (%) ([3]; P388, 25 mg/kg/dose): 155%
- MST ([3]; P388, 25 mg/kg/dose): 17.0
- T/C (%) ([3]; P388, 50 mg/kg/dose): 168%
- MST ([3]; P388, 50 mg/kg/dose): 18.5
- T/C (%) ([3]; P388, 100 mg/kg/dose): 182%
- MST ([3]; P388, 100 mg/kg/dose): 20.0
- T/C (%) ([3]; P388, 200 mg/kg/dose): 82%
- MST ([3]; P388, 200 mg/kg/dose): 9.0
- anti-tumor activity ([3]; result in words): effective anti-tumor agent
- IC50 [2]: 110 nM

SMILES: O=C1NC(=O)c2c1c1c3cc(F)ccc3[nH]c1c1c2c2cc(F)ccc2n1[C@@H]1O[C@H](CN2CCOCC2)[C@@H](O)[C@H](O)[C@H]1O [Example 29, 3,9-Difluoro-12,13-dihydro-13-[6-(4N-morpholino)-β-D-glucopyranosyl]-5H-indolo[2,3-a]pyrrolo [3,4-c] carbazole-5,7(6H)-dione]
- EC50 [1]: 10 nM
- T/C (%) ([3]; P388, 25 mg/kg/dose): 127%
- MST ([3]; P388, 25 mg/kg/dose): 14.0
- T/C (%) ([3]; P388, 50 mg/kg/dose): 109%
- MST ([3]; P388, 50 mg/kg/dose): 12.0
- T/C (%) ([3]; P388, 100 mg/kg/dose): 150%
- MST ([3]; P388, 100 mg/kg/dose): 16.5
- T/C (%) ([3]; P388, 200 mg/kg/dose): 91%
- MST ([3]; P388, 200 mg/kg/dose): 10
- IC50 [2]: 90 nM

SMILES: [N-]=[N+]=NC[C@H]1O[C@@H](n2c3ccc(F)cc3c3c4c(c5c6cc(F)ccc6[nH]c5c32)C(=O)N(O)C4=O)[C@H](O)[C@@H](O)[C@@H]1O [Example 30, 3,9-Difluoro-12,13-dihydro-13-[6-azido-β-D-glucopyranosyl]-5H-indolo[2,3-a]pyrrolo [3,4-c] carbazole-5,7(6-hydroxy)dione]
- EC50 [1]: < 10 nM

SMILES: NC[C@H]1O[C@@H](n2c3ccc(F)cc3c3c4c(c5c6cc(F)ccc6[nH]c5c32)C(=O)N(O)C4=O)[C@H](O)[C@@H](O)[C@@H]1O [Example 31, 3,9-Difluoro-12,13-dihydro-13-[6-amino-β-D-glucopyranosyl]-5H-indolo[2,3-a]pyrrolo [3,4-c] carbazole-5,7(6-hydroxy)dione]
- EC50 [1]: < 10 nM

SMILES: O=C1NC(=O)c2c1c1c3cc(F)ccc3[nH]c1c1c2c2cc(F)ccc2n1[C@@H]1O[C@H](Cn2ccnc2)[C@@H](O)[C@H](O)[C@H]1O [Example 34]
- EC50 [1]: 23000 nM

SMILES: CN1CCN(C[C@H]2O[C@@H](n3c4ccc(F)cc4c4c5c(c6c7cc(F)ccc7[nH]c6c43)C(=O)NC5=O)[C@H](O)[C@@H](O)[C@@H]2O)CC1 [Example 35]
- EC50 [1]: 750 nM
- IC50 [2]: 500 nM

More lines, main results first:

- EC50 [1]: 30 nM
SMILES: CS(=O)(=O)OC[C@H]1O[C@@H](n2c3ccc(F)cc3c3c4c(c5c6cc(F)ccc6[nH]c5c32)C(=O)NC4=O)[C@H](O)[C@@H](O)[C@@H]1O [Example 15, 3,9-Difluoro-12,13-dihydro-13-[6-O-(methylsulfonyl)-β-D-glucopyranosyl]-5H-indolo[2,3-a]pyrrolo[3,4-c]carbazole-5,7(6H)-dione]
- IC50 [2]: 260 nM

- Topo-I activity (concentration without activity) [1]: greater than 100 micro molar
- EC50 [1]: > 100000 nM
SMILES: NC[C@H]1O[C@@H](n2c3cc(F)ccc3c3c4c(c5c6ccc(F)cc6[nH]c5c32)C(=O)N(N)C4=O)[C@H](O)[C@@H](O)[C@@H]1O [Example 18, 6-Amino-13-(6-amino-6-deoxy-β-D-glucopyranosyl)-2,10-difluoro-12,13-dihydro-5H-indolo[2,3-a]pyrrolo[3,4-c]carbazole-5,7(6H)-dione]
- IC50 [2]: > 1450 nM

- EC50 [1]: 100 nM
SMILES: O=C1NC(=O)c2c1c1c3cc(F)ccc3[nH]c1c1c2c2cc(F)ccc2n1[C@@H]1O[C@H](CF)[C@@H](O)[C@H](O)[C@H]1O [Example 47]

- EC50 [1]: 400 nM
SMILES: O=C1c2c(c3c4cc(F)ccc4n([C@@H]4O[C@H](CF)[C@@H](O)[C@H](O)[C@H]4O)c3c3[nH]c4ccc(F)cc4c23)C(=O)N1O [Example 48]

- EC50 [1]: 30 nM
SMILES: CCN(CC)C[C@H]1O[C@@H](n2c3ccc(F)cc3c3c4c(c5c6cc(F)ccc6[nH]c5c32)C(=O)N(O)C4=O)[C@H](O)[C@@H](O)[C@@H]1O [Example 68]

- EC50 [1]: 30 nM
SMILES: O=C1c2c(c3c4cc(F)ccc4n([C@@H]4O[C@H](CF)[C@@H](O)[C@H](O)[C@H]4O)c3c3sc4ccc(F)cc4c23)C(=O)N1O [Example 69]

- Topo-I activity [1]: not Topo-I active
SMILES: CO[C@H]1[C@H](O)[C@@H](O)[C@H](n2c3c(Cl)cccc3c3c4c(c5c6cccc(Cl)c6[nH]c5c32)C(=O)NC4=O)O[C@@H]1CO [rebeccamycin, reference compound]
